In PMC4066871 (Bioorganic & medicinal chemistry letters, 2013):

Legend:
GIRK = conditions: cited from earlier work
GIRK1/GIRK4 [1] = target: T1, GIRK1/GIRK4 (Homo sapiens, UniProt P48544+P48549); assay: GIRK1/4 thallium flux assay in stably transfected HEK-293 cells; format: cell-based
T1 sequence (P48549 1-501): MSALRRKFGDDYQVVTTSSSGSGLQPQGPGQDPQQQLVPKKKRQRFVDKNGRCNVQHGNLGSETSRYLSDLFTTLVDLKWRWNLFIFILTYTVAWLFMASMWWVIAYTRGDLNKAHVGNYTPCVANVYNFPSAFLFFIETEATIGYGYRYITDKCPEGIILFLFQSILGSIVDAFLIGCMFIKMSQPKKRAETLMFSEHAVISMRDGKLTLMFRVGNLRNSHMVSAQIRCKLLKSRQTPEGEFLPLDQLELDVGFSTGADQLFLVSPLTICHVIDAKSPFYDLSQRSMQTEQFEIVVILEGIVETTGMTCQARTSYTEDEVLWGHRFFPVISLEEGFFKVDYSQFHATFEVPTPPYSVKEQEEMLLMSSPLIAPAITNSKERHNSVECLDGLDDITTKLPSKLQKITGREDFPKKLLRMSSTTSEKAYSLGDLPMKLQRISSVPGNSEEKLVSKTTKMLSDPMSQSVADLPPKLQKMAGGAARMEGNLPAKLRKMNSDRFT
T1 sequence (P48544 1-419): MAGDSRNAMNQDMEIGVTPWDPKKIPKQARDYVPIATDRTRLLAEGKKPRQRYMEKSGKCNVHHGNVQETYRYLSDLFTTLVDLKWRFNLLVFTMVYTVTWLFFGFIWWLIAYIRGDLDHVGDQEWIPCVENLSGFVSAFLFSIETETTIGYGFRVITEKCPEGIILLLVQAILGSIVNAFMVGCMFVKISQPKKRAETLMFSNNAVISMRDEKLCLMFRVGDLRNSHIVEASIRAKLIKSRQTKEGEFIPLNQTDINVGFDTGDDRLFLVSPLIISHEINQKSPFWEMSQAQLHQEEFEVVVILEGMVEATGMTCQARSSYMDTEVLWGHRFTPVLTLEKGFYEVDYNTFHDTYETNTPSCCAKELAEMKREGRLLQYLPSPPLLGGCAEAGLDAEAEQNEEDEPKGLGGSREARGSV

other K+ channels = conditions: cited from earlier work
GIRK2/3 = conditions: cited from earlier work
GIRK1/2 = conditions: cited from earlier work
GIRK1/GIRK4 [2] = target: T1, GIRK1/GIRK4; conditions: GIRK1/2 activator vs GIRK1/4; cited from earlier work
GIRK1/GIRK2 = target: T2, GIRK1/GIRK2 (Homo sapiens, UniProt P48051+P48549); assay: GIRK1/2 thallium flux assay in stably transfected HEK-293 cells; format: cell-based
T2 sequence (P48549 1-501): T1 sequence (P48549 1-501)
T2 sequence (P48051 1-423): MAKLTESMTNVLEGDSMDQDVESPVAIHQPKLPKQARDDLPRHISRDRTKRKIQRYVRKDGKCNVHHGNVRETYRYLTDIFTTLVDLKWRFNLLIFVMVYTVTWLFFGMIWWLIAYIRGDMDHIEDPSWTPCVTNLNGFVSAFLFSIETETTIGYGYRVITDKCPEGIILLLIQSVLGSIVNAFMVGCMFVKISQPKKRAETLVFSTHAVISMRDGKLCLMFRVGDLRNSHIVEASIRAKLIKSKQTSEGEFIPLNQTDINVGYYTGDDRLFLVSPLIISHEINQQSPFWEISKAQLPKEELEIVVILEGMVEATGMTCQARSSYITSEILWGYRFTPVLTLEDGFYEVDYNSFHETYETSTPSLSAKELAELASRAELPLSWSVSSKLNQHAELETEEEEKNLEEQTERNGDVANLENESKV

GIRK1/4 activity (in words) (GIRK1/GIRK4 [1])	GIRK1/2 activity (in words) (GIRK1/GIRK2)	SMILES	other results
–	–	C[C@@H]1O[C@@H](O[C@H]2[C@H](Oc3cc(O)c4c(c3)O[C@H](c3ccc(O)cc3)CC4=O)O[C@H](CO)[C@@H](O)[C@@H]2O)[C@H](O)[C@H](O)[C@H]1O [naringin]	EC50 (GIRK; read-out: GIRK activation EC50, reported value): > 100 µM
selective, partial GIRK1/4 activators	–	O=C(Cc1ccccc1Cl)Nc1cccc(Cl)c1 [Compd 8g]	–
selective, partial GIRK1/4 activators	–	O=C(Cc1ccccc1Cl)Nc1ccc(C(F)(F)F)cc1 [Compd 8h]	–
–	–	Cc1cc(NC(=O)Nc2ccc(F)c(F)c2)n(-c2ccccc2)n1 [Compd 2]	Activity on other K+ channels (in words) (other K+ channels): inactive; Activity on GIRK2/3 (in words) (GIRK2/3): inactive; CNS penetration (in words) (GIRK1/2): centrally penetrant; Anti-epileptic properties (in words) (GIRK1/2; mice, via GIRK1/2 activation): established anti-epileptic properties in mice; Selectivity for GIRK1/2 vs GIRK1/4 (GIRK1/GIRK4 [2]): ~ 10 fold
–	–	CCO [ethanol]	Concentration known to activate GIRK (GIRK): hundreds of millimolar
diminution in potency	diminution in potency	Cc1ccc(NC(=O)Cc2ccc(F)cc2)cc1S(=O)(=O)N(C)C [Compd 3d]	–
maintained potency and efficacy	diminished potency and lost efficacy	CN(C)S(=O)(=O)c1cccc(NC(=O)Cc2ccccc2Cl)c1 [Compd 3b]	–
diminution in potency	diminution in potency	CN(C)S(=O)(=O)c1cccc(NC(=O)Cc2ccc(Cl)cc2)c1 [Compd 3c]	–
